The subject of one assay is Z138 cells. The assay can be described thus: MTT cell proliferation assay, Z138. The assay is classed as cell-based. The conditions noted are these: Homo sapiens, Z-138, Z138 cells, read-out: MTT Assay IC50, Z138. The method in brief: (§1)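 Seeding 5,000-10,000 cells/well, overnight attachment; 8 concs, 1 nM–30 μM. MTT ~4 h, formazan solubilized, OD 490 nm. % inhibition vs negative control, mostly duplicate, mean±SE.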

The test system of assay [1] is PAK4 interactors and downstream proteins. The assay can be described thus: Immunoblots of PAK4 interactors and downstream proteins in U2OS cells. The assay is classed as cell-based, human. To be noted: 0.5 μM or 5 μM, 72 hours. Here is the method:
Immunoblots were used to measure the effects of exemplary compounds on protein steady-state levels and phophorylation of PAK4 interactor and downstream proteins. Specifically, U2OS (osteosarcoma) cells were split and plated on day 1. After overnight attachment to the tissue culture plate, cells were treated with either DMSO (0), 37 nM, 111 nM, 333 nM, 1 μM, or 3 μM Compound 246 for 72 hours. Cells were collected, washed and lysed in RIPA buffer. After obtaining the protein concentration by BCA assay, lysates were boiled in loading buffer and run on SDS-PAGE. The gels were transferred to nitrocellulose membranes and blotted with antibodies raised against phosphor-PAK4, PAK4, phophos-beta-catenin, beta-catenin, GEF-H1, phospho-Akt, Akt, phospho-ERK1/2, ERK1/2, phospho-cofilin, cofilin, phospho-histone H3, histone H3, cyclin D1, Mcl-1, Bcl-2, p21, survivin, caspase 8, caspase 3, PARP, and beta-actin (loading control).
In another experiment, U2OS (osteosarcoma) cells were split and plated on day 1. After overnight attachment to the tissue culture plate, cells were treated with DMSO (Ct), 0.5 μM, or 5 μM of Compound 124, 369, 226, 246, or 907 for 72 hours. Cells were collected, washed and lysed in RIPA buffer. After obtaining the protein concentration by BCA assay, lysates were boiled in loading buffer and run on SDS-PAGE. The gels were transferred to nitrocellulose membranes and blotted with antibodies raised against phophos-beta-catenin, cyclin D1, PAK4, phospho-cofilin, and beta-actin (loading control).

The next assay concerns MS751 cells. The assay can be described thus: MTT cell proliferation assay, MS751. The assay is classed as cell-based, human. The conditions noted are these: Homo sapiens, MS751, MS751 cells, read-out: MTT Assay IC50, MS751. The method in brief:
as §1

The subject of another assay is 3T3 cells. In words: MTT cell proliferation assay, 3T3. The class given is cell-based, mouse. The conditions noted are these: Mus musculus, NIH3T3, 3T3 cells, read-out: MTT Assay IC50, 3T3. In short, it runs like this:
as §1

Setting [2] is: approximately 64-72 hours incubation.
[3] abbreviates: eight concentrations 1 nM to 30 μM, incubation approximately 64-72 hours.

pIC50: −log10 of the molar value. Counter-ions that a name gives are not always drawn. Like-named read-outs stand apart in the source and are kept apart here.

`Nc1ccc(CNC(=O)/C=C/C2Cc3cc(-c4ccc(C(=O)N5CCOCC5)cc4)cc(Cl)c3O2)cn1` (centres unmarked) [Compound 907, (E)-N-((6-aminopyridin-3-yl)methyl)-3-(7-chloro-5-(4-(morpholine-4-carbonyl)phenyl)-2,3-dihydrobenzofuran-2-yl)acrylamide hydrochloride]: the pIC50 is above 7.00 in the assay with Z138 cells (setting [2]), above 7.00 with MS751 cells (setting [2]) and 4.52 to 5.30 in the assay on 3T3 cells (setting [2]). Further, the PAK4 total protein result in assay [1] is on record as “decrease”. Besides, the “phosphorylation of PAK4 signaling proteins beta-catenin and cofilin” value in assay [1] is “decreases in phosphorylation”.
For the compound `O=C(/C=C/c1cccnc1)NCC1Cc2cccc(Cl)c2O1` (centres unmarked) [Compound 83, (E)-N-((7-chloro-2,3-dihydrobenzofuran-2-yl)methyl)-3-(pyridin-3-yl)acrylamide], the pIC50 in the assay with Z138 cells (setting [3]) is 4.52 to 5.30; with MS751 cells (setting [3]), 4.52 to 5.30; in the assay with 3T3 cells (setting [3]) it was below 4.52.
In the case of `O=C(/C=C/c1cccnc1)NCC1Cc2cc(-c3ccc(C(=O)N4CCOCC4)cc3)cc(Cl)c2O1` (centres unmarked) [Compound 29], the pIC50 is above 7.00 in the assay on Z138 cells (setting [3]), above 7.00 in the assay on MS751 cells (setting [3]) and 5.30 to 7.00 in the assay on 3T3 cells (setting [3]).
Regarding `CC(=O)c1ccc(-c2cc(Cl)c3c(c2)CC(CNC(=O)/C=C/c2cn(C)nc2C)O3)s1` (centres unmarked) [Compound 156, (E)-N-((5-(5-acetylthiophen-2-yl)-7-chloro-2,3-dihydrobenzofuran-2-yl)methyl)-3-(1,3-dimethyl-1H-pyrazol-4-yl)acrylamide], the pIC50 in the assay on Z138 cells (setting [3]), in the assay with MS751 cells (setting [3]) and in the assay on 3T3 cells (setting [3]) was below 4.52 each time.
For the compound `CC(=O)c1ccc(-c2cc(Cl)c3c(c2)CC(CNC(=O)/C=C/c2ccc(C)nc2)O3)s1` (centres unmarked) [Compound 146, (E)-N-((5-(5-acetylthiophen-2-yl)-7-chloro-2,3-dihydrobenzofuran-2-yl)methyl)-3-(6-methylpyridin-3-yl)acrylamide], the pIC50 was below 4.52 with Z138 cells (setting [3]), 4.52 to 5.30 with MS751 cells (setting [3]) and below 4.52 with 3T3 cells (setting [3]).
As to `CC(=O)c1ccc(-c2cc(Cl)c3c(c2)CC(CNC(=O)/C=C/c2csnn2)O3)s1` (centres unmarked) [Compound 281, (E)-N-((5-(5-acetylthiophen-2-yl)-7-chloro-2,3-dihydrobenzofuran-2-yl)methyl)-3-(1,2,3-thiadizol-5-yl)acrylamide], the pIC50 in the assay on Z138 cells (setting [2]), in the assay on MS751 cells (setting [2]) and in the assay with 3T3 cells (setting [2]) was below 4.52 in each case.
Regarding `Nc1ccc(/C=C/C(=O)NCC2Cc3cc(-c4ccc(C(=O)N5CCOCC5)cn4)cc(Cl)c3O2)cn1` (centres unmarked) [Compound 333, (E)-3-(6-Aminopyridin-3-yl)-N-((7-chloro-5-(5-(morpholine-4-carbonyl)pyridin-2-yl)-2,3-dihydrobenzofuran-2-yl)methyl)acrylamide], the figures for the pIC50 in the assay with Z138 cells (setting [2]), in the assay on MS751 cells (setting [2]) and with 3T3 cells (setting [2]) were above 7.00, above 7.00 and 4.52 to 5.30, respectively.
With `Nc1ccc(CNC(=O)/C=C/C2Cc3cc(-c4ccc(S(=O)(=O)N5CC(F)(F)C5)cc4)cc(Cl)c3O2)cn1` (centres unmarked) [Compound 363, (E)-N-((6-aminopyridin-3-yl)methyl)-3-(7-chloro-5-(4-(3,3-difluoroazetidin-1-ylsulfonyl)phenyl)-2,3-dihydrobenzofuran-2-yl)acrylamide], the figures for the pIC50 in the assay with Z138 cells (setting [2]), with MS751 cells (setting [2]) and with 3T3 cells (setting [2]) were below 4.52, below 4.52 and 4.52 to 5.30, respectively.
Regarding `Cc1noc(-c2ccccc2)c1-c1cc(Cl)c2c(c1)CC(CNC(=O)/C=C/c1ccc(N)nc1)O2` (centres unmarked) [Compound 327, (E)-3-(6-aminopyridin-3-yl)-N-((7-chloro-5-(3-methyl-5-phenylisoxazol-4-yl)-2,3-dihydrobenzofuran-2-yl)methyl)acrylamide], the pIC50 in the assay on Z138 cells (setting [2]) is above 7.00; in the assay with MS751 cells (setting [2]), 5.30 to 7.00; in the assay on 3T3 cells (setting [2]), 5.30 to 7.00.
`CC(=O)c1ccc(-c2cc(Cl)c3c(c2)CC(CNC(=O)/C(C)=C/c2cccnc2)O3)s1` (centres unmarked) [Compound 262, (E)-N-((5-(5-acetylthiophen-2-yl)-7-chloro-2,3-dihydrobenzofuran-2-yl)methyl)-2-methyl-3-(pyridin-3-yl) acrylamide]: the pIC50 is 4.52 to 5.30 in the assay with Z138 cells (setting [3]), 4.52 to 5.30 in the assay on MS751 cells (setting [3]) and below 4.52 with 3T3 cells (setting [3]).
Take `O=C(/C=C/c1cccnc1)NCC1Cc2cc(-c3cc(F)c(F)c(F)c3)cc(Cl)c2O1` (centres unmarked) [Compound 21, (E)-N-((7-chloro-5-(3,4,5-trifluorophenyl)-2,3-dihydrobenzofuran-2-yl)methyl)-3-(pyridin-3-yl)acrylamide]: the pIC50 with Z138 cells (setting [3]) was 5.30 to 7.00; in the assay with MS751 cells (setting [3]), 5.30 to 7.00; in the assay on 3T3 cells (setting [3]), below 4.52.
For the compound `CC(=O)c1ccc(-c2cc(Cl)c3c(c2)CC(CNC(=O)/C=C/c2cncc(C)c2)O3)s1` (centres unmarked) [Compound 280, (E)-N-((5-(5-acetylthiophen-2-yl)-7-chloro-2,3-dihydrobenzofuran-2-yl)methyl)-3-(5-methylpyridin-3-yl)acrylamide], the pIC50 in the assay with Z138 cells (setting [2]) was 5.30 to 7.00; with MS751 cells (setting [2]), 5.30 to 7.00; in the assay on 3T3 cells (setting [2]), below 4.52.
`CC(=O)c1ccc(-c2cc(Cl)c3c(c2)CC(CNC(=O)/C=C/c2nccs2)O3)s1` (centres unmarked) [Compound 207]: the pIC50 in the assay with Z138 cells (setting [2]), in the assay with MS751 cells (setting [2]) and with 3T3 cells (setting [2]) was below 4.52 throughout.
Regarding `CC(=O)c1ccc(Oc2cc(Cl)c3c(c2)CC(CNC(=O)/C=C/c2cccnc2)O3)s1` (centres unmarked) [Compound 303, (E)-N-((5-(5-acetylthiophen-2-yloxy)-7-chloro-2,3-dihydrobenzofuran-2-yl)methyl)-3-(pyridin-3-yl)acrylamide], the pIC50 in the assay with Z138 cells (setting [2]), in the assay with MS751 cells (setting [2]) and with 3T3 cells (setting [2]) was 5.30 to 7.00 each time.
As for `CC(=O)c1ccc(-c2cc(Cl)c3c(c2)CC(CNC(=O)/C=C/c2ccccc2N)O3)s1` (centres unmarked) [Compound 110, (E)-N-((5-(5-acetylthiophen-2-yl)-7-chloro-2,3-dihydrobenzofuran-2-yl)methyl)-3-(2-aminophenyl)acrylamide], the pIC50 with Z138 cells (setting [3]), in the assay with MS751 cells (setting [3]) and in the assay with 3T3 cells (setting [3]) was below 4.52 throughout.
With `Nc1ccc(/C=C/C(=O)NCC2Cc3cc(-c4c(F)cc(C(=O)N5CCOCC5)cc4F)cc(Cl)c3O2)cn1` (centres unmarked) [Compound 902, (E)-3-(6-aminopyridin-3-yl)-N-((7-chloro-5-(2,6-difluoro-4-(morpholine-4-carbonyl)phenyl)-2,3-dihydrobenzofuran-2-yl)methyl)acrylamide], the pIC50 was above 7.00 in the assay with Z138 cells (setting [2]), above 7.00 in the assay with MS751 cells (setting [2]) and 5.30 to 7.00 in the assay with 3T3 cells (setting [2]).
On to `Nc1ccc(/C=C/C(=O)NCC2Cc3cc(-c4cccc(C(=O)N5CCOCC5)c4)cc(Cl)c3O2)cn1` (centres unmarked) [Compound 239, (E)-3-(6-aminopyridin-3-yl)-N-((7-chloro-5-(3-(morpholine-4-carbonyl)phenyl)-2,3-dihydrobenzofuran-2-yl)methyl)acrylamide], for which the values for the pIC50 in the assay with Z138 cells (setting [2]), in the assay with MS751 cells (setting [2]) and in the assay on 3T3 cells (setting [2]) were above 7.00, above 7.00 and 5.30 to 7.00, respectively.
With `CC(=O)c1ccc(-c2cc(Cl)c3c(c2)CC(CNC(=O)/C=C/c2cccnn2)O3)s1` (centres unmarked) [Compound 279, (E)-N-((5-(5-acetylthiophen-2-yl)-7-chloro-2,3-dihydrobenzofuran-2-yl)methyl)-3-(pyridazin-3-yl)acrylamide], the negative-log IC50 (pIC50) in the assay on Z138 cells (setting [3]), in the assay on MS751 cells (setting [3]) and with 3T3 cells (setting [3]) was 5.30 to 7.00 in each case.
With `Nc1ccc(/C=C/C(=O)NCC2Cc3cc(-c4ccc(C(=O)N5CC(F)(F)C5)cn4)cc(Cl)c3O2)cn1` (centres unmarked) [Compound 338, (E)-3-(6-aminopyridin-3-yl)-N-((7-chloro-5-(5-(3,3-difluoroazetidine-1-carbonyl)pyridin-2-yl)-2,3-dihydrobenzofuran-2-yl)methyl)acrylamide], the pIC50 was above 7.00 in the assay on Z138 cells (setting [2]), above 7.00 in the assay on MS751 cells (setting [2]) and 5.30 to 7.00 in the assay with 3T3 cells (setting [2]).
Regarding `CC(=O)c1ccc(-c2cc(Cl)c3c(c2)CC(CNC(=O)/C=C/Cc2cccnc2)O3)s1` (centres unmarked) [Compound 222, (E)-N-((5-(5-acetylthiophen-2-yl)-7-chloro-2,3-dihydrobenzofuran-2-yl)methyl)-4-(pyridin-3-yl)but-2-enamide], the pIC50 in the assay on Z138 cells (setting [2]) is 5.30 to 7.00; in the assay on MS751 cells (setting [2]), 5.30 to 7.00; in the assay on 3T3 cells (setting [2]), 4.52 to 5.30.
